In patent US7858635B2 (priority 2005, dated 2010):
Like-named read-outs stand apart in the source and are kept apart here.

How the values were obtained:
M4 muscarinic receptor = molecular target: T1, M4 muscarinic receptor (Homo sapiens, UniProt P08173); experiment: Functional mobilization of intracellular calcium (FLIPR, Fluo-3), M4-CHO cells; type: cell-based; conditions: for Emax / M4 Efficacy: 100% efficacy is the maximum response obtained with the Carbachol control; for Emax: read-out: M4 Efficacy
T1 construct: expressed in transfected cells; host or cells: CHO cells (M4-CHO, under puromycin, zeocin and blasticidin selection)
T1 sequence (P08173 1-479): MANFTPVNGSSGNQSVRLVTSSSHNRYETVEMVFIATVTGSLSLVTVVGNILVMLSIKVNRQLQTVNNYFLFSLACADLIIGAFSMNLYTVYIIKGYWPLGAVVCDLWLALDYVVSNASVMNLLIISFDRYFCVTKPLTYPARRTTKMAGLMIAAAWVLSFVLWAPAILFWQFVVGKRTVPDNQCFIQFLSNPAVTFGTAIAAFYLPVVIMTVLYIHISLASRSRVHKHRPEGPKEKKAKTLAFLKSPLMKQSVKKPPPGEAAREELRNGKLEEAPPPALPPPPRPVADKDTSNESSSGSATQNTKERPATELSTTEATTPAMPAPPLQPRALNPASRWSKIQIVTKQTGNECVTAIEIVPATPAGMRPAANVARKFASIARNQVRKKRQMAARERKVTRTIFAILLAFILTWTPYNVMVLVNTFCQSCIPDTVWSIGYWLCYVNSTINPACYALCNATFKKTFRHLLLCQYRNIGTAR
Method in brief: (§1)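 Fluo-3 read-out, ex 488/em 540 nm, 60 sec on FLIPR 3. For agonist mode, compound added directly; for inhibition, 15 min compound pre-incubation before carbachol at EC80 (added as a 3× solution), or co-application. Buffer pH 7.4 with 1 mM probenecid; DMSO 0.5%.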

M1 muscarinic receptor = molecular target: T2, M1 muscarinic receptor (Homo sapiens, UniProt P11229); experiment: Functional mobilization of intracellular calcium (FLIPR, Fluo-3), M1-CHO cells; type: cell-based; conditions: for Emax / M1 Efficacy: 100% efficacy is the maximum response obtained with the Carbachol control; for Emax: read-out: M1 Efficacy
T2 construct: expressed in transfected cells; host or cells: CHO cells (M1-CHO, under zeocin and G418 selection)
T2 sequence (P11229 1-460): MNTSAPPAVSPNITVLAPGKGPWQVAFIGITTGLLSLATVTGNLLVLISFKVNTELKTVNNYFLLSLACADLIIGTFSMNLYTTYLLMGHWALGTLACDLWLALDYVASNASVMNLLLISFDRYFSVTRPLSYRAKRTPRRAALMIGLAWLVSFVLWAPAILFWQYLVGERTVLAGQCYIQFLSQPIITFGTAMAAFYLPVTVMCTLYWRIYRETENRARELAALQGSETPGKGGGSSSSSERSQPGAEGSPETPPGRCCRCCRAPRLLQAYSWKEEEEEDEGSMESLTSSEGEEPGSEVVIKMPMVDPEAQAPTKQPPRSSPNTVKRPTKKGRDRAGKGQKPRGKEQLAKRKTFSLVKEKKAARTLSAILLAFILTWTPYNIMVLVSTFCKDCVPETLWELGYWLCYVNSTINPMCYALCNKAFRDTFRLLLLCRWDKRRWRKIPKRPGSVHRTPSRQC
Method in brief: as §1

[1] = compound nos. 1-454, M4-CHO cells, calcium mobilization
[2] = compound nos. 1-454, M1-CHO cells, calcium mobilization

SMILES | Emax (M4 muscarinic receptor; compound nos. 1-454) [%] | M4 Activity (M4 muscarinic receptor; [1]) | Emax (M1 muscarinic receptor; compound nos. 1-454) [%] | M1 Activity (M1 muscarinic receptor; [2]) | also measured
CC#CCOC(=O)N1CCC(N2CCC3(CC2)CN(C(C)=O)c2ccc(F)cc23)CC1 [compound 102] | 55 to 70 | ++ (activity was measured to be between 0.1 μM and 4.0 μM) | 65 to 85 | +++ (activity was measured to be less than or equal to 0.7 μM) | 
CCOC(=O)N1CCC(CN2CCC3(CC2)COc2ccc(Cl)cc23)CC1 [compound 176] | 55 to 70 | ++ (activity was measured to be between 0.1 μM and 4.0 μM) | > 85 | ++ (activity was measured to be between 0.7 μM and 3.0 μM) | 
CC(=O)N1CC2(CCN(C3CCC4(CC3)CC(C)=NO4)CC2)c2cc(F)ccc21 (stereo not shown) [compound 433] | < 55 |  | 65 to 85 |  | M4 Activity (M4 muscarinic receptor; compound nos. 1-454): ++ (activity was measured to be between 0.1 μM and 4.0 μM); M1 Activity (M1 muscarinic receptor; compound nos. 1-454): ++ (activity was measured to be between 0.7 μM and 3.0 μM)
CC(=O)N1CC2(CCN(CC3CC4CCC3CC4)CC2)c2cc(F)ccc21 (stereo not shown) [compound 366] | < 55 | + (activity was measured to be greater than or equal to 4.0 μM) | < 65 | ++ (activity was measured to be between 0.7 μM and 3.0 μM) | 
CCOC(=O)N1CCC(N2CCC3(CC2)CN(C(=O)O[C@H]2CCOC2)c2ccc(F)cc23)CC1 [compound 49] |  | +++ (activity was measured to be less than or equal to 0.1 μM) |  | +++ (activity was measured to be less than or equal to 0.7 μM) | M4 Efficacy (M4 muscarinic receptor; compound nos. 1-454): ++ (efficacy was calculated to be between 70% and 55%); M1 Efficacy (M1 muscarinic receptor; compound nos. 1-454): +++ (efficacy was calculated to be 85% or more)
CC(C)C(=O)N[C@H]1CC2(CCN(C[C@H]3C[C@H]4CC[C@H]3C4)CC2)c2ccccc21 [compound 55] | 55 to 70 | +++ (activity was measured to be less than or equal to 0.1 μM) | > 85 | +++ (activity was measured to be less than or equal to 0.7 μM) | 
CCOC(=O)N1CCC(N2CCC3(CC2)CN(C(C)=O)c2ccc(OC)cc23)CC1 [compound 340] | < 55 | + (activity was measured to be greater than or equal to 4.0 μM) | < 65 | ++ (activity was measured to be between 0.7 μM and 3.0 μM) | 
CCOC(=O)N1CCC(C)(CN2CCC3(CC2)C[C@H](NC(C)=O)c2ccccc23)CC1 [compound 315] | < 55 | + (activity was measured to be greater than or equal to 4.0 μM) | < 65 | + (activity was measured to be greater than or equal to 3.0 μM) | 
c1ccc2c(c1)NCC21CCN(C2CC3CCC(C3)C2)CC1 (stereo not shown) [compound 420] | < 55 |  | < 65 |  | M4 Activity (M4 muscarinic receptor; compound nos. 1-454): + (activity was measured to be greater than or equal to 4.0 μM); M1 Activity (M1 muscarinic receptor; compound nos. 1-454): ++ (activity was measured to be between 0.7 μM and 3.0 μM)
CC(=O)N[C@H]1CC2(CCN(C3CCCCCC3)CC2)c2ccccc21 [compound 143] | > 70 | +++ (activity was measured to be less than or equal to 0.1 μM) | 65 to 85 | +++ (activity was measured to be less than or equal to 0.7 μM) | 
CCOC(=O)N1CCC(N2CCC3(CC2)CN(C(=O)OCCOC)c2ccc(F)cc23)CC1 [compound 38] | > 70 | +++ (activity was measured to be less than or equal to 0.1 μM) | > 85 | +++ (activity was measured to be less than or equal to 0.7 μM) | 
O=C1CC2(CCN(C3CCCCCC3)CC2)c2ccccc2N1 [compound 242] | > 70 | ++ (activity was measured to be between 0.1 μM and 4.0 μM) | 65 to 85 | +++ (activity was measured to be less than or equal to 0.7 μM) | 
Fc1ccc2c(c1)C1(CCN(CC3CCC4CCC3C4)CC1)CN2 (stereo not shown) [compound 13] | < 55 | + (activity was measured to be greater than or equal to 4.0 μM) | 65 to 85 | ++ (activity was measured to be between 0.7 μM and 3.0 μM) | 
Cc1ccc2c(c1)C1(CCN(CC3CC4CCC3C4)CC1)CN2C(=O)OC(C)(C)C (stereo not shown) [compound 382] | 55 to 70 |  | 65 to 85 |  | M4 Activity (M4 muscarinic receptor; compound nos. 1-454): + (activity was measured to be greater than or equal to 4.0 μM); M1 Activity (M1 muscarinic receptor; compound nos. 1-454): +++ (activity was measured to be less than or equal to 0.7 μM)
CCOC(=O)N1C2CCC1CC(CN1CCC3(CC1)CNc1ccc(F)cc13)C2 (stereo not shown) [compound 368] | < 55 | ++ (activity was measured to be between 0.1 μM and 4.0 μM) | < 65 | +++ (activity was measured to be less than or equal to 0.7 μM) | 
CCCOC(=O)N1C2CCC1CC(N1CCC3(CC1)CN(C(=O)C1CC1)c1ccc(F)cc13)C2 (stereo not shown) [compound 389] | < 55 |  | 65 to 85 |  | M4 Activity (M4 muscarinic receptor; compound nos. 1-454): + (activity was measured to be greater than or equal to 4.0 μM); M1 Activity (M1 muscarinic receptor; compound nos. 1-454): ++ (activity was measured to be between 0.7 μM and 3.0 μM)
CS(=O)(=O)N[C@@H]1CC2(CCN(C[C@H]3C[C@H]4CC[C@H]3C4)CC2)c2ccccc21 [compound 227] | > 70 | +++ (activity was measured to be less than or equal to 0.1 μM) | > 85 | +++ (activity was measured to be less than or equal to 0.7 μM) | 
O=C(OC1CCCC1)N1C2CCC1CC(N1CCC3(CC1)COc1ccc(F)cc13)C2 (stereo not shown) [compound 133] | 55 to 70 | ++ (activity was measured to be between 0.1 μM and 4.0 μM) | > 85 | +++ (activity was measured to be less than or equal to 0.7 μM) | 
CC(=O)NC1CC2(CCN(C[C@@H]3C[C@H]4C=C[C@H]3C4)CC2)c2ccccc21 (stereo partly shown) [compound 421] |  |  |  |  | M4 Activity (M4 muscarinic receptor; compound nos. 1-454): + (activity was measured to be greater than or equal to 4.0 μM); M4 Efficacy (M4 muscarinic receptor; compound nos. 1-454): + (efficacy was calculated to be 55% or less); M1 Activity (M1 muscarinic receptor; compound nos. 1-454): + (activity was measured to be greater than or equal to 3.0 μM); M1 Efficacy (M1 muscarinic receptor; compound nos. 1-454): + (efficacy was calculated to be 65% or less)
Cc1nsc(N2CCC(N3CCC4(CC3)CN(C(=O)N(C)C)c3ccccc34)CC2)n1 [compound 458] |  |  |  |  | Emax (M4 muscarinic receptor; compound nos. 455-509): > 100%; M4 Activity (M4 muscarinic receptor; compounds 455-509): ++ (activity was measured to be between 2.0 μM and 5.0 μM); Emax (M1 muscarinic receptor; compound nos. 455-509): > 100%; M1 Activity (M1 muscarinic receptor; compounds 455-509): +++ (activity was measured to be less than or equal to 2.0 μM)
CCOC(=O)N1C2CCC1CC(N1CCC3(CC1)CN(C(=O)O[C@@H]1CCOC1)c1ccc(F)cc13)C2 (stereo partly shown) [compound 28] | 55 to 70 | ++ (activity was measured to be between 0.1 μM and 4.0 μM) | > 85 | +++ (activity was measured to be less than or equal to 0.7 μM) | 
CCOC(=O)N1CCC(N2CCC3(CC2)CN(C(C)=O)c2ccc(C4CC4)cc23)CC1 [compound 245] | > 70 | ++ (activity was measured to be between 0.1 μM and 4.0 μM) | < 65 | ++ (activity was measured to be between 0.7 μM and 3.0 μM) | 
CC(=O)N[C@H]1CC2(CCN(C3C4CC5CC(C4)CC3C5)CC2)c2ccccc21 (stereo partly shown) [compound 4] | < 55 | + (activity was measured to be greater than or equal to 4.0 μM) | < 65 | +++ (activity was measured to be less than or equal to 0.7 μM) | 
CC(=O)N1CC2(CCN(C3CCN(c4cnc(C)c(C)n4)CC3)CC2)c2ccccc21 [compound 471] |  |  |  |  | Emax (M4 muscarinic receptor; compound nos. 455-509): 25 to 100%; M4 Activity (M4 muscarinic receptor; compounds 455-509): ++ (activity was measured to be between 2.0 μM and 5.0 μM); Emax (M1 muscarinic receptor; compound nos. 455-509): > 100%; M1 Activity (M1 muscarinic receptor; compounds 455-509): ++ (activity was measured to be between 2.0 μM and 5.0 μM)
CN(C)C(=O)N1CC2(CCN(C3CC4CCC(C3)N4C(=O)O[C@H]3CCOC3)CC2)c2cc(F)ccc21 (stereo partly shown) [compound 130] | < 55 | ++ (activity was measured to be between 0.1 μM and 4.0 μM) | < 65 | +++ (activity was measured to be less than or equal to 0.7 μM) | 
